Data taken from US20130165625A1, “PEPTIDES INCORPORATING 3-AMINOADAMANTANE CARBOXYLIC ACIDS ENHANCE SYNAPTIC PLASTICITY AND ACT AS NEUROGENIC AGENTS” (JUSTUS-LIEBIG-UNIVERSITAT GIESSEN, priority 2010, published 2013).
Residues, ends and D or L forms follow the SMILES beside them.

Key:
[1] = General examination: body weight and physical state during peptide treatment; assay type: in vivo, mice; details: s.c. depot pellets 25 nmol/day for 35 days; for effect on body weight: FIG. 1A, female C57BI6 mice
Procedure: (§1) All in vivo studies for characterization of peptides (stereology and behavioral analysis) were performed on 8-10-month-old female retired breeders of C57BI6 background. Animals were acclimatized for at least 3 weeks to exclude occasional pregnant mice from the studies. Mice were group-housed (3 animals per cage) with a 12:12 hours light/dark cycle and with free access to food and water. All procedures were conducted in accordance with approved protocols from our institutional Animal Welfare Committee. For the peptide treatment, mice (8 animals/group) received subcutaneous implants of long term continuous release depot pellets containing Peptide021 or Peptide022 at 25 nmol/day for 35 days of continuous dosing (Innovative Research of America, Sarasota, Fla.). For the control group (8 animals), pellets consisted of the carrier polymer only. Mice were anesthetized with 2.5% Avertin (0.38 ml for a 25 g animal). Under sterile conditions, pellets were implanted subcutaneously along the anterolateral aspect of the right shoulder with a precision trochar (Innovative Research of America, Sarasota, Fla.). After recovery of anesthesia, animals were transferred to the animal colony. […] To investigate neurogenesis, BrdU (Sigma, St. Louis, Mo.) was given as two daily i.p. injections (100 mg/kg/dose) for five days starting on day 2 of peptides treatment.
The physical state and condition of animals were carefully monitored throughout the treatment by evaluating grooming, physical state and clasping reflex. Body weight was also recorded.

mice [2] = assay: Open field familiarization session (locomotor/exploratory activity and anxiety); assay type: in vivo; details: for anxiety level of mice: FIG. 1B, time in centre of arena, first 5 minutes, s.c. pellets 25 nmol/day; for effect on exploratory activity: FIG. 1C, open field, s.c. pellets 25 nmol/day for 35 days
Procedure: as §1
In the one-trial object recognition task, animals are exposed to two different objects which they have to identify as novel or familiar based on the memory of an earlier experience with one of the two objects they encountered in the same open field. The familiar object is explored shorter than the novel encountered one because the representation of the former is still available in memory. The one-trial object recognition task tests some aspects of episodic memory but is limited to memory of an object (what), the location of an object (where), and the context in which is was encountered (which). However, the temporal dimension of the episode remains inaccessible to the experimentator, and because of this reason this task in animals is considered a test of short term memory (Ennaceur, 2010). The test used was an adaptation of the procedure previously described by Sargolini and collaborators (2003). The testing apparatus was a classic open field (i.e. a PVC square arena, 50×50 cm, with walls 40 cm high). The open field was placed in a part of the room separated from the experimentator with a black opaque curtain. The open field was surmounted by a video camera connected to a computer. Three objects were employed in this task. The general procedure consisted of three different phases: a familiarization phase (one session of 20 min), a sample phase, and a test phase. […] Object discrimination (OD) during the test phase was evaluated as […]

mice [3] = assay: One-trial object recognition test; assay type: in vivo; details: FIG. 1E-F; p<0.05, Student t-test; s.c. pellets 25 nmol/day
Procedure: All in vivo studies for characterization of peptides (stereology and behavioral analysis) were performed on 8-10-month-old female retired breeders of C57BI6 background. Animals were acclimatized for at least 3 weeks to exclude occasional pregnant mice from the studies. Mice were group-housed (3 animals per cage) with a 12:12 hours light/dark cycle and with free access to food and water. All procedures were conducted in accordance with approved protocols from our institutional Animal Welfare Committee. For the peptide treatment, mice (8 animals/group) received subcutaneous implants of long term continuous release depot pellets containing Peptide021 or Peptide022 at 25 nmol/day for 35 days of continuous dosing (Innovative Research of America, Sarasota, Fla.). For the control group (8 animals), pellets consisted of the carrier polymer only. Mice were anesthetized with 2.5% Avertin (0.38 ml for a 25 g animal). […]
In the one-trial object recognition task, animals are exposed to two different objects which they have to identify as novel or familiar based on the memory of an earlier experience with one of the two objects they encountered in the same open field. […] Object discrimination (OD) during the test phase was evaluated as […]

mice [4] = assay: Spatial reference memory task in the water maze; assay type: in vivo; details: for effect on swim speed: FIG. 1D, water maze, s.c. pellets 25 nmol/day for 35 days; for performance in the learning of spatial memory task in water maze: FIG. 1G, p<0.001, two-way ANOVA, s.c. pellets 25 nmol/day
Procedure: as §1
Spatial reference learning and memory were evaluated in the water maze using a procedure adapted from that previously described by Morris et al. (1982). The test required that mice used a spatial navigational strategy based on a spatial representation of the environment to find a fixed submerged escape platform. The procedure was performed in a 180 cm diameter circular tank. The pool was filled with water (21±1)° C. made opaque by adding white non-toxic paint. Acquisition started with the escape platform (15 cm diameter submerged 1 cm below water surface) in the Northwest quadrant and each animal was given 90 s to find the platform. […] At the end of each trial, the mouse was left on the platform for 20 s, then dried and returned to its home cage until the next trial. Five such acquisition trials were given on each day for four consecutive days. A test for retention, or probe trial (PT), was given 24 hours later. During the probe trial the mouse was allowed to swim in the tank without the escape platform for 60 seconds. This was followed by second and third probe trials 15 and 30 days after the first probe trial. The measures of learning were the time and distance covered to reach the escape platform. For the probe trial, the tank was divided into four imaginary quadrants and a small zone where the escape platform had been. The measures of retention were calculated index as the ratio of time spent or distance covered in target quadrant over them in the three other quadrants. Mouse behavior in the water maze was monitored by a Samsung Digital Camera (SDC 4304) mounted to the ceiling and tracked and timed by a SMART (Pan Lab/San Diego Instruments) version 2.0.14 software. Immunohistochemistry

[5] = tested on: BrdU-positive and BrdU/NeuN-double-positive cells in the dentate gyrus; assay: Neurogenesis in the dentate gyrus (BrdU / NeuN immunohistochemistry, unbiased stereology); assay type: in vivo, mice; details: p<0.05, s.c. pellets 25 nmol/day
Procedure: as §1
At the end of the behavioral experiment, animals were anesthetized with an overdose of sodium pentobarbital (50 mg/kg) and transcardially perfused with 0.1 M phosphate buffered saline (PBS). After perfusion, the brains were removed from the skull, the left hemisphere was immediately frozen for future biochemical analysis and the right hemisphere was immersion fixed in 4% paraformaldehyde in 0.1 M PBS for at least 24 hours at room temperature. Tissues were equilibrated and stored in 30% sucrose solution at 4° C. until sectioning. The brains were sectioned sagittaly on a freezing sliding microtome at 40 μm through the entire hippocampus and the sections were stored in glycol anti-freeze solution (Ethylene glycol, glycerol and 0.1 M PBS in 3:3:4 ratio) at −20° C. until further processing. For double labeling of BrdU and NeuN, brain sections were pretreated with 2 M HCl at 37° C. for 30 min and neutralized with 0.1 M borate buffer (pH 8.5) for 10 minutes. Tissue sections were incubated first for 30 min with blocking buffer (4% normal goat serum +0.1% Tween-20 in PBS) and then overnight at 4° C. in the presence of BrdU (Millipore Corporation, Billerica, Mass.) and NeuN (Millipore Corporation) antibodies diluted 1:400 and 1:100, respectively. […] Neurogenesis in the dentate gyrus was evaluated by counting the number of BrdU-positive and BrdU/NeuN-double-positive cells in the dentate gyrus (DG). The number of positive cells was determined in every fifth section in a series of 40 μm sagittal sections throughout the DG using unbiased sterology (West et al., 1991). All BrdU-positive cells in the subgranular zone (SGZ) and granule cell layer (GCL) were counted using a fluorescent microscope (Nikon Eclipse 90i, Nikon Corporation, Japan). Double labeled cells were assessed by a confocal imaging system (D-Eclipse C1, Nikon Corporation). […] For each brain, at least 100 cells were counted based on coefficient of error determinations. […]

synaptophysin = assay: Expression of synaptophysin in DG (immunohistochemistry, mean optical density); assay type: in vivo, mice; details: FIG. 3A; p<0.001; s.c. pellets 25 nmol/day
Procedure: (§2) All in vivo studies for characterization of peptides (stereology and behavioral analysis) were performed on 8-10-month-old female retired breeders of C57BI6 background. Animals were acclimatized for at least 3 weeks to exclude occasional pregnant mice from the studies. Mice were group-housed (3 animals per cage) with a 12:12 hours light/dark cycle and with free access to food and water. All procedures were conducted in accordance with approved protocols from our institutional Animal Welfare Committee. […]
(§3) At the end of the behavioral experiment, animals were anesthetized with an overdose of sodium pentobarbital (50 mg/kg) and transcardially perfused with 0.1 M phosphate buffered saline (PBS). […] Neurogenesis in the dentate gyrus was evaluated by counting the number of BrdU-positive and BrdU/NeuN-double-positive cells in the dentate gyrus (DG). The number of positive cells was determined in every fifth section in a series of 40 μm sagittal sections throughout the DG using unbiased sterology (West et al., 1991). All BrdU-positive cells in the subgranular zone (SGZ) and granule cell layer (GCL) were counted using a fluorescent microscope (Nikon Eclipse 90i, Nikon Corporation, Japan). Double labeled cells were assessed by a confocal imaging system (D-Eclipse C1, Nikon Corporation). […] For each brain, at least 100 cells were counted based on coefficient of error determinations. […]

synapsin I = assay: Expression of synapsin I in DG (immunohistochemistry, mean optical density); assay type: in vivo, mice; details: FIG. 3B; p<0.001; s.c. pellets 25 nmol/day
Procedure: as §2, §3

[6] = tested on: LIF-induced STAT3 phosphorylation at Tyr705; assay: Analysis of STAT3 phosphorylation in HepG2 cells; assay type: cell-based, human; details: FIG. 4, different peptide concentrations with 0.25 nM LIF for 15 min, Western blot
Procedure: To investigate the molecular mechanism of action of Peptide021 in LIF signaling, HepG2 human hepatoma cell (ATCC, Manassas, Va.) at 80% confluence were treated with different concentrations of Peptide021 and with 0.25 nM LIF (Chemicon International Inc., Temecula, Calif.) for 15 min. The cells were lysed and subjected to Western blots developed with antibodies anti-phospho-Tyr 705 STAT3 and anti-STAT3 (Cell signaling Technology, Danvers, Mass.).
HepG2 cells were treated with different concentrations of Peptide 021 together with 0.25 nM LIF for 15 min, and then the STAT3 phosphorylation at Tyr705 (pY-STAT3) was determined by Western blots. The pY-STAT3 value was normalized to total STAT3 expression. Data are presented as percentages of the value from cells treated with 0.25 nM LIF alone (100%). *p<0.01.

| effect on exploratory activity (mice [2]) | effect on swim speed (mice [4]) | Compound | effect on body weight [1] | complications associated with the implantation and treatment [1] | anxiety level of mice (mice [2]) | ability to discriminate a new object versus a familiar object (mice [3]) | performance in the learning of spatial memory task in water maze (mice [4]) | effect in second probe trial (PT2) (mice [4]; FIG. 1H, after 15 days of the end of treatment) | effect in third probe trial (PT3) (mice [4]; FIG. 1H, after 30 days of the end of treatment) | performances in the first probe trial (mice [4]; FIG. 1H, probe trial 24 hours after acquisition, p<0.05) | numbers of BrdU positive cells in the GCL ([5]; FIG. 2B) | numbers of BrdU positive cells in the SGZ ([5]; FIG. 2B) | numbers of BrdU positive cells in the total DG ([5]; FIG. 2B) | number of BrdU/NeuN positive cells in the GCL ([5]; FIG. 2C) | number of BrdU/NeuN positive cells in the total DG ([5]; FIG. 2C) | expression of synaptophysin in the DG (synaptophysin) | expression of synapsin I in the DG (synapsin I) | LIF-induced STAT3 phosphorylation (pY-STAT3 normalized to total STAT3) [6] |
| --- | --- | --- | --- | --- | --- | --- | --- | --- | --- | --- | --- | --- | --- | --- | --- | --- | --- | --- |
| did not induce any effect | did not induce any effect | CC(=O)N[C@@H](CC(=O)O)C(=O)NCC(=O)NCC(=O)N[C@@H](CC(C)C)C(=O)N[C@]12CC3CC(C1)C[C@@](C(N)=O)(C3)C2 [Peptide 021, Ac-Asp-Gly-Gly-Leu-^AGly-NH2] (HELM PEPTIDE1{[ac].D.G.G.L.[NC(=O)[C@]12CC3CC(C[C@](N[*:1])(C3)C1)C2]}$$$$V2.0) | did not induce any effect | No complications | reduced | significantly improved | increased performance | no longer effect | no longer effect | improved performances | significantly increased | significantly increased | significantly increased | significantly increased | significantly increased | significantly promoted | significantly promoted | Inhibition |
| did not induce any effect | did not induce any effect | CC(C)C[C@H](NC(=O)CNC(=O)CNC(=O)[C@H](CC(=O)O)NC(=O)C12CC3CC(CC(C3)C1)C2)C(=O)NC12CC3CC(C1)CC(C(N)=O)(C3)C2 [Peptide 022, 1-AdCO-DGGL^AG-NH2] (HELM PEPTIDE1{[O=C(C12CC3CC(CC(C3)C1)C2)[*:2]].D.G.G.L.[NC(=O)C12CC3CC(CC(N[*:1])(C3)C1)C2]}$$$$V2.0) | did not induce any effect | No complications | reduced | – | increased performance | – | – | – | – | – | – | – | – | – | – | – |
